Marks after values point to notes of the source that are not given here.
How the values were obtained:
Assay type in all cases: in vivo
[1] = tested on: db/db mice; assay: Fasting plasma glucose (FPG) measurement; settings: Ex 2 G3 db/db, Met oral 0.3 mg/g bw/day, dosing 6 weeks
Experimental: Four to five weeks old db/db mice (BKS.Cg-Dock7^m+/+Lepr^db/JNarl) and m/m mice (BKS.Cg-Dock7^m+/Dock7^m+) were obtained from National Laboratory Animal Center (Nangang, Taipei, Taiwan). These animals were maintained in a facility with a 12-h dark-light cycle at 24±2° C. and 65±5% humidity and were provided food (No. 5001; PMI Nutrition International, Brentwood, Mo.) and water ad libitum. For experiments, the average body weight of m/m mice was approximately 20 g, and that of db/db mice was approximately 30 g.
For each mouse, blood was sampled from the tail vein and measured for FPG levels using a blood glucose meter (OneTouch UltraEasy, Johnson & Johnson, USA) at a predestined time point.

[2] = tested on: db/db mice; assay: Histopathological assessment (H&E stain); settings: Ex 2, metformin-treated vs ertapenem-treated mice
Description: For histopathological assessment, all mice were sacrificed by 95% CO2 asphyxiation at the end of the study period. Their brain, liver, kidney, pancreas, and epididymal fat pads were removed, fixed in 10% phosphate-buffered formalin, and embedded in paraffin. Tissues embedded in paraffin were cut into […] sections that were then stained with hematoxylin-eosin (i.e., H&E stain).

[3] = Food and water intake of mice; settings: Ex 3: db/db mice, daily dosing 3 weeks at doses of Table 10
Experimental: (§1) Four to five weeks old db/db mice (BKS.Cg-Dock7^m+/+Lepr^db/JNarl) and m/m mice (BKS.Cg-Dock7^m+/Dock7^m+) were obtained from National Laboratory Animal Center ([…], Taiwan). […] PMI Nutrition International, Brentwood, Mo.) and water ad libitum. […] The mouse body weight (bw) and the amounts of water and food intake were recorded weekly for the entire study period.

[4] = Body weight of mice recorded weekly
Experimental: as §1

Structure (SMILES): CN(C)C(=N)N=C(N)N [Met, metformin]
- Average FPG level ([1]; week 0): 160 ± 21^b
- Average FPG level ([1]; week 3): 136 ± 13^b
- Average FPG level ([1]; week 6): 222 ± 30^b
- Average FPG level ([1]; week 9): 310 ± 25^d
- Average FPG level ([1]; week 12): 267 ± 43^cd
- Average FPG level ([1]; week 16): 215 ± 27^b
- Average FPG level ([1]; week 18): 346 ± 50^b
- Kidney histological changes (tubular degeneration and necrosis, mineralization, hyaline cast) [2]: more apparent
- Diet intake [3]: 6.2 ± 1^c g/mice/day
- Water intake [3]: 12.1 ± 1^d mL/mice/day
- Body weight ([4]; Ex 2 G3 db/db, Met oral 0.3 mg/g bw/day, dosing 6 weeks, Baseline): 31.17 ± 0.47^b
- Body weight ([4]; Ex 2 G3 db/db, Met oral 0.3 mg/g bw/day, dosing 6 weeks, week 1): 30.81 ± 0.48^b
- Body weight ([4]; Ex 2 G3 db/db, Met oral 0.3 mg/g bw/day, dosing 6 weeks, week 2): 32.61 ± 0.46^bc
- Body weight ([4]; Ex 2 G3 db/db, Met oral 0.3 mg/g bw/day, dosing 6 weeks, week 3): 35.97 ± 0.57^cd
- Body weight ([4]; Ex 2 G3 db/db, Met oral 0.3 mg/g bw/day, dosing 6 weeks, week 4): 37.47 ± 0.79^c
- Body weight ([4]; Ex 2 G3 db/db, Met oral 0.3 mg/g bw/day, dosing 6 weeks, week 5): 40.15 ± 0.93^c
- Body weight ([4]; Ex 2 G3 db/db, Met oral 0.3 mg/g bw/day, dosing 6 weeks, week 6): 41.82 ± 0.98^d
- Body weight ([4]; Ex 2 G3 db/db, Met oral 0.3 mg/g bw/day, dosing 6 weeks, week 7): 42.38 ± 1.25^d
- Body weight ([4]; Ex 2 G3 db/db, Met oral 0.3 mg/g bw/day, dosing 6 weeks, week 8): 43.04 ± 1.54^d
- Body weight ([4]; Ex 2 G3 db/db, Met oral 0.3 mg/g bw/day, dosing 6 weeks, week 9): 43.68 ± 1.58^d
- Body weight ([4]; Ex 2 G3 db/db, Met oral 0.3 mg/g bw/day, dosing 6 weeks, week 10): 43.40 ± 1.4^b
- Body weight ([4]; Ex 2 G3 db/db, Met oral 0.3 mg/g bw/day, dosing 6 weeks, week 11): 44.15 ± 1.37^b
- Body weight ([4]; Ex 2 G3 db/db, Met oral 0.3 mg/g bw/day, dosing 6 weeks, week 12): 45.24 ± 1.37^b
- Body weight ([4]; Ex 2 G3 db/db, Met oral 0.3 mg/g bw/day, dosing 6 weeks, week 13): 44.68 ± 1.6^b
- Body weight ([4]; Ex 3: db/db mice, daily dosing 3 weeks at doses of Table 10, Baseline): 28.9 ± 1^b
- Body weight ([4]; Ex 3: db/db mice, daily dosing 3 weeks at doses of Table 10, Final): 37.0 ± 1^c
- Body weight ([4]; Ex 3: db/db mice, daily dosing 3 weeks at doses of Table 10, Week 3): 35.9 ± 1^d
- Body weight ([4]; Ex 3: db/db mice, daily dosing 3 weeks at doses of Table 10, Week 6 (stopped for 3 weeks)): 39.5 ± 1^c
- Body weight ([4]; Ex 3: db/db mice, daily dosing 3 weeks at doses of Table 10, Week 9 (stopped for 6 weeks)): 39.7 ± 1^c
